Source: patent US4764505A, “Skin treatment composition” (Shiseido Company Ltd., priority 1985, dated 1988)
Like-named read-outs stand apart in the source and are kept apart here.

Assays:
[1] = Stability with time in 0.1N aqueous sodium hydroxide (absorbancy at 420 nm, FIG. 1); format: physicochemical; conditions: 1 mM in 0.1N aqueous sodium hydroxide, 37° C.
Protocol: Also in FIG. 1, the changes of the absorbancy at 420 nm are shown with the lapse of time.
Hydroquinone, arbutin, or hydroquinone monocaprylate was dissolved at a concentration of 1 mM in a 0.1N aqueous sodium hydroxide solution. The changes in the color of the resultant solutions with the lapse of time at 37° C. were monitored by measuring the absorbancy at 420 nm.

skin [2] = conditions: guinea pig, in vivo
[3] = Stability of neutral cream on storage at 37° C. (discoloration); format: physicochemical; conditions: for degree of discoloration: neutral cream of Example 8 (or arbutin replaced), 37° C.
Protocol: These three samples were stored at a temperature of 37° C. for 1 month, 2 months, and 3 months.

tyrosinase = system: tyrosinase
Protocol: The depigmenting effects of arbutin and hydroquinone were evaluated by using the inhibition rate of tyrosinase, i.e. polyphenol oxidase for forming melanin. This evaluation method is generally accepted in the art.
The tyrosinase inhibition rate was determined by using DOPA as a substrate as follows:
Preparation of Sample Solution
Aqueous sample solutions having a concentration of hydroquinone or arbutin of 150, 300, or 600 mM were prepared.
Preparation of Substrate Solution
A substrate solution was prepared by dissolving 5 mg of DOPA in 10 ml of distilled water.
Preparation of Enzyme Solution
An enzyme solution was prepared by dissolving 10 mg of tyrosinase (2000 I.U./mg, Sigma Chemical Co.) in 10 ml of distilled water.
A 0.5 ml amount of the substrate solution and 0.9 ml of 1/15M phosphate buffer solution were added to 0.05 ml of the sample. The mixture was incubated at 25° C. for 5 minutes. Then, 0.05 ml of the enzyme solution, which was previously incubated at 25° C. for 5 minutes, was added to the above-incubated sample mixture. The resultant mixture was allowed to react for 1.5 minutes. The absorbancy of the resultant reaction mixture was measured at 475 nm. The tyrosinase inhibition rate was calculated from the following equation: [formula] wherein T: Absorbancy in the case of the inhibitor being added;
T': Absorbancy in the case of the inhibitor being added but the substrate not being added
C: Absorbancy in the case of the inhibitor not being added
C': Absorbancy in the case of neither the inhibitor nor the substrate being added

skin [4] = conditions: guinea pig, in vivo; remark: listed apart in the source

| Results (score, erythema and edema criteria) (skin [2]) | degree of discoloration ([3]; 1 month) | stability with the lapse of time (in words) ([3]; Table 4 conclusion) | degree of discoloration ([3]; 2 months) | degree of discoloration ([3]; 3 months) | inhibition effect compared with hydroquinone (tyrosinase; tyrosinase, Table 1 conclusion in words) | SMILES | change in color of the solution with lapse of time [1] | Results (incidence, animals responding/tested) (skin [2]) | order of the contact sensitization potential (skin [2]) | Inhibition Rate (%) (tyrosinase; concentration 5 mM) | Inhibition Rate (%) (tyrosinase; concentration 10 mM) | Inhibition Rate (%) (tyrosinase; concentration 20 mM) | contact sensitivity compared with other depigmenting agents (skin [2]) | irritation (in words) (skin [4]) | number of the guinea pigs causing the irritation (skin [4]) |
| --- | --- | --- | --- | --- | --- | --- | --- | --- | --- | --- | --- | --- | --- | --- | --- |
| 0 | ++ | excellent | ++ | ++ | superior to that of hydroquinone | OC[C@H]1O[C@@H](Oc2ccc(O)cc2)[C@H](O)[C@@H](O)[C@@H]1O [Arbutin, hydroquinone-β-D-glucoside] | the change of appearance was not observed | 0/1 | Hydroquinone monocaprylate>Hydroquinone>>Arbutin | 55.3% | 62.3% | 67.1% | remarkably low compared with that of other depigmenting agents | no irritation | 0 |
| 3.4 | + |  | + | - |  | CCCCCCCC(=O)Oc1ccc(O)cc1 [Hydroquinone monocaprylate, hydroquinone monocaprylate] | the stability was improved moderate | 5/5 | Hydroquinone monocaprylate>Hydroquinone>>Arbutin |  |  |  |  | strong irritation |  |

| SMILES | Results (score, erythema and edema criteria) (skin [2]) | degree of discoloration ([3]; 1 month) | stability with the lapse of time (in words) ([3]; Table 4 conclusion) | degree of discoloration ([3]; 2 months) | degree of discoloration ([3]; 3 months) | inhibition effect compared with hydroquinone (tyrosinase; tyrosinase, Table 1 conclusion in words) | change in color of the solution with lapse of time [1] | Results (incidence, animals responding/tested) (skin [2]) | order of the contact sensitization potential (skin [2]) | Inhibition Rate (%) (tyrosinase; concentration 5 mM) | Inhibition Rate (%) (tyrosinase; concentration 10 mM) | Inhibition Rate (%) (tyrosinase; concentration 20 mM) | contact sensitivity compared with other depigmenting agents (skin [2]) | irritation (in words) (skin [4]) | number of the guinea pigs causing the irritation (skin [4]) |
| --- | --- | --- | --- | --- | --- | --- | --- | --- | --- | --- | --- | --- | --- | --- | --- |
| Oc1ccc(O)cc1 [Hydroquinone, hydroquinone] | 2.6 | - |  |  |  |  | rapidly colored brown | 5/5 | Hydroquinone monocaprylate>Hydroquinone>>Arbutin | 46.5% | 51.6% | 59.0% |  |  |  |
